In brackets after ≈: the same amount, converted by molar mass. Counter-ions that a name gives are not always drawn. Like-named read-outs stand apart in the source and are kept apart here.
System: pathogenic bacteria
Assay: MIC by microdilution broth method (NCCLS M7-A4), in vitro antibacterial activity
Type: cell-based
Outline: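 MIC read after 35 °C incubation for 16–20 h relative to drug-free growth wells. Cation-adjusted Mueller-Hinton broth with two-fold compound dilutions, organisms at roughly 5×10^4 CFU/well final. Method follows NCCLS document M7-A4.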

[1] = Staphylococcus aureus, Organism A: Staphylococcus aureus OC4172, read-out: MIC
[2] = Streptococcus pneumoniae, ATCC49619, Organism E: Streptococcus pneumoniae ATCC 49619, read-out: MIC
[3] = Streptococcus pneumoniae, Organism B: fluoroquinolone-resistant clinical isolate of Streptococcus pneumoniae (QRDR amino acid substitutions)
[4] = Streptococcus pneumoniae, Organism C: fluoroquinolone-resistant clinical isolate of Streptococcus pneumoniae (QRDR amino acid substitutions)
[5] = Streptococcus pneumoniae, Organism D: fluoroquinolone-resistant clinical isolate of Streptococcus pneumoniae (QRDR amino acid substitutions)

SMILES	MIC [1] [µg/mL]	MIC [2] [µg/mL]	MIC [3] [µg/mL]	MIC [4] [µg/mL]	MIC [5] [µg/mL]	MIC (Staphylococcus aureus, Organism A: Staphylococcus aureus OC4172) [µg/mL]	MIC (Streptococcus pneumoniae, ATCC49619, Organism E: Streptococcus pneumoniae ATCC 49619) [µg/mL]
CNC/C(Cl)=C1/CCCN(c2cc3c(cc2F)c(=O)c(C(=O)O)cn3C2CC2)C1.Cl [Compound 428, (E)-7-[3-(1-Chloro-2-methylamino-ethylidene)-piperidin-1-yl]-1-cyclopropyl-6-fluoro-4-oxo-1,4-dihydroquinoline-3-carboxylic Acid Hydrochloride Salt]	0.25	1	> 16	> 16	> 16	–	–
CNCC(F)=C1CN(c2cc3c(cc2F)c(=O)c(C(=O)O)cn3C2CC2)C1.O=C(O)C(F)(F)F [Compound 430, 1-Cyclopropyl-6-fluoro-7-[3-(1-fluoro-2-methylamino-ethylidene)-azetidin-1-yl]-4-oxo-1,4-dihydro-quinoline-3-carboxylic acid trifluoroacetic acid salt]	0.12	0.5	8	2	4	–	–
CNCC(Cl)=C1CN(c2cc3c(cc2F)c(=O)c(C(=O)O)cn3C2CC2)C1 [Compound 431, 7-[3-(1-Chloro-2-methylamino-ethylidene)-azetidin-1-yl]-1-cyclopropyl-6-fluoro-4-oxo-1,4-dihydro-quinoline-3-carboxylic acid trifluoroacetic acid salt]	–	–	4	1	2	0.06	0.25
COc1c(N2CCC(=C(C#N)CN)CC2)c(F)cc2c(=O)c(C(=O)O)cn(C3CC3)c12 [Compound 433, 7-[4-(2-Amino-1-cyano-ethylidene)-piperidin-1-yl]-1-cyclopropyl-6-fluoro-8-methoxy-4-oxo-1,4-dihydro-quinoline-3-carboxylic Acid]	≤ 0.015	0.12 (≈ 0.281 µM)	–	0.5 (≈ 1.17 µM)	0.5 (≈ 1.17 µM)	–	–
C[C@H]1COc2c(N3CCC(=C(C#N)CN)CC3)c(F)cc3c(=O)c(C(=O)O)cn1c23 [Compound 435, 9-[4-(2-Amino-1-cyano-ethylidene)-piperidin-1-yl]-8-fluoro-(3S)-3-methyl-6-oxo-2,3-dihydro-6H-1-oxa-3a-aza-phenalene-5-carboxylic Acid]	0.12 (≈ 0.291 µM)	0.5 (≈ 1.21 µM)	–	4 (≈ 9.7 µM)	8 (≈ 19.4 µM)	–	–
N#CC(CN)=C1CCN(c2c(F)cc3c(=O)c(C(=O)O)cn(C4CC4)c3c2OC(F)F)CC1 [Compound 437, 7-[4-(2-Amino-1-cyano-ethylidene)-piperidin-1-yl]-1-cyclopropyl-6-fluoro-8-difluoromethoxy-4-oxo-1,4-dihydro-quinoline-3-carboxylic Acid]	0.06 (≈ 0.13 µM)	0.12 (≈ 0.259 µM)	–	1 (≈ 2.16 µM)	0.25 (≈ 0.541 µM)	–	–
COc1c(N2CCC(=C(C#N)CN)CC2)c(F)cc2c(=O)c(C(=O)O)cn([C@@H]3C[C@@H]3F)c12 [Compound 439, 7-[4-(2-Amino-1-cyano-ethylidene)-piperidin-1-yl]-6-fluoro-(1R,2S)-1-(2-fluoro-cyclopropyl)-8-methoxy-4-oxo-1,4-dihydro-quinoline-3-carboxylic Acid]	0.06 (≈ 0.135 µM)	0.25 (≈ 0.563 µM)	–	2 (≈ 4.5 µM)	2 (≈ 4.5 µM)	–	–
N#C/C(CN)=C1\CCCN(c2nc3c(cc2F)c(=O)c(C(=O)O)cn3C2CC2)C1 [Compound 441, (E)-7-[3-(2-Amino-1-cyano-ethylidene)-piperidin-1-yl]-1-cyclopropyl-6-fluoro-4-oxo-1,4-dihydro-[1,8]naphthyridine-3-carboxylic Acid]	0.5 (≈ 1.26 µM)	8 (≈ 20.1 µM)	8 (≈ 20.1 µM)	> 16	> 16	–	–
N#C/C(CN)=C1/CCCN(c2nc3c(cc2F)c(=O)c(C(=O)O)cn3C2CC2)C1 [Compound 443, (Z)-7-[3-(2-Amino-1-cyano-ethylidene)-piperidin-1-yl]-1-cyclopropyl-6-fluoro-4-oxo-1,4-dihydro-[1,8]naphthyridine-3-carboxylic Acid]	0.5 (≈ 1.26 µM)	8 (≈ 20.1 µM)	8 (≈ 20.1 µM)	> 16	> 16	–	–
COc1c(N2CCC(=C(Cl)CNC(=O)CN)CC2)c(F)cc2c(=O)c(C(=O)O)cn(C3CC3)c12.O=C(O)C(F)(F)F [Compound 445, 7-{4-[2-(2-Amino-acetylamino)-1-chloro-ethylidene]-piperidin-1-yl}-1-cyclopropyl-6-fluoro-8-methoxy-4-oxo-1,4-dihydro-quinoline-3-carboxylic Acid Trifluoroacetate Salt]	0.12	1	16	> 16	> 16	–	–
COc1c(N2CCC/C(=C(/Cl)CN)C2)c(F)cc2c(=O)c(C(=O)O)cn(C3CC3)c12 [Compound 446, (Z)-7-[3-(2-Amino-1-chloro-ethylidene)-piperidin-1-yl]-1-cyclopropyl-6-fluoro-8-methoxy-4-oxo-1,4-dihydro-quinoline-3-carboxylic acid]	0.25 (≈ 0.574 µM)	1 (≈ 2.29 µM)	–	4 (≈ 9.18 µM)	4 (≈ 9.18 µM)	–	–
NC/C(Cl)=C1\CCCN(c2c(F)cc3c(=O)c(C(=O)O)cn(C4CC4)c3c2OC(F)F)C1 [Compound 447, (Z)-7-[3-(2-Amino-1-chloro-ethylidene)-piperidin-1-yl]-1-cyclopropyl-8-difluoromethoxy-6-fluoro-4-oxo-1,4-dihydro-quinoline-3-carboxylic acid]	0.25 (≈ 0.53 µM)	1 (≈ 2.12 µM)	–	16 (≈ 33.9 µM)	1 (≈ 2.12 µM)	–	–
C[C@H]1COc2c(N3CCC/C(=C(/Cl)CN)C3)c(F)cc3c(=O)c(C(=O)O)cn1c23 [Compound 448, (Z)-9-[3-(2-Amino-1-chloro-ethylidene)-piperidin-1-yl]-8-fluoro-(3S)-3-methyl-6-oxo-2,3-dihydro-6H-1-oxa-3a-aza-phenalene-5-carboxylic acid]	0.25 (≈ 0.593 µM)	2 (≈ 4.74 µM)	–	8 (≈ 19 µM)	16 (≈ 37.9 µM)	–	–
COc1c(N2CCC/C(=C(/Cl)CN)C2)c(F)cc2c(=O)c(C(=O)O)cn([C@@H]3C[C@@H]3F)c12 [Compound 449, (Z)-7-[3-(2-Amino-1-chloro-ethylidene)-piperidin-1-yl]-6-fluoro-(1R,2S)-1-(2-fluoro-cyclopropyl)-8-methoxy-4-oxo-1,4-dihydro-quinoline-3-carboxylic acid]	0.25 (≈ 0.551 µM)	2 (≈ 4.41 µM)	–	> 16	16 (≈ 35.3 µM)	–	–
NC/C(Cl)=C1\CCCN(c2c(F)cc3c(=O)c(C(=O)O)cn(-c4nc(N)c(F)cc4F)c3c2Cl)C1 [Compound 450, (Z)-7-[3-(2-Amino-1-chloro-ethylidene)-piperidin-1-yl]-1-(6-amino-3,5-difluoro-pyridin-2-yl)-8-chloro-6-fluoro-4-oxo-1,4-dihydro-quinoline-3-carboxylic acid]	0.12 (≈ 0.227 µM)	0.5 (≈ 0.946 µM)	–	8 (≈ 15.1 µM)	8 (≈ 15.1 µM)	–	–
Cc1c(F)c(N2CCC/C(=C\CN)C2)cc2c1c(=O)c(C(=O)O)cn2C1CC1 [Compound 451, (E)-7-[3-(2-Amino-ethylidene)-piperidin-1-yl]-1-cyclopropyl-6-fluoro-5-methyl-4-oxo-1,4-dihydro-quinoline-3-carboxylic acid]	0.25 (≈ 0.649 µM)	1 (≈ 2.59 µM)	–	16 (≈ 41.5 µM)	1 (≈ 2.59 µM)	–	–
Cc1c(F)c(N2CCC/C(=C(/Cl)CN)C2)cc2c1c(=O)c(C(=O)O)cn2C1CC1 [Compound 452, (Z)-7-[3-(2-Amino-1-chloro-ethylidene)-piperidin-1-yl]-1-cyclopropyl-6-fluoro-5-methyl-4-oxo-1,4-dihydro-quinoline-3-carboxylic acid]	0.5 (≈ 1.19 µM)	4 (≈ 9.53 µM)	–	4 (≈ 9.53 µM)	> 16	–	–
CNC/C(F)=C1/CCCN(c2c(F)cc3c(=O)c(C(=O)O)cn(C4CC4)c3c2OC)C1.Cl [Compound 453, (E)-1-Cyclopropyl-6-fluoro-7-[3-(1-fluoro-2-methylamino-ethylidene)-piperidin-1-yl]-8-methoxy-4-oxo-1,4-dihydro-quinoline-3-carboxylic Acid Hydrochloride Salt]	0.06	0.25	–	4	2	–	–
COc1c(N2CCC(=C(Cl)CN)CC2)c(F)c(C)c2c(=O)c(C(=O)O)cn(C3CC3)c12 [Compound 455, 7-[4-(2-Amino-1-chloro-ethylidene)-piperidin-1-yl]-1-cyclopropyl-6-fluoro-8-methoxy-5-methyl-4-oxo-1,4-dihydro-quinoline-3-carboxylic Acid]	≤ 0.015	0.25 (≈ 0.556 µM)	0.12 (≈ 0.267 µM)	2 (≈ 4.45 µM)	1 (≈ 2.22 µM)	–	–
NC/C(F)=C1/CCCN(c2c(F)c(N)c3c(=O)c(C(=O)O)cn(C4CC4)c3c2F)C1 [Compound 456, 5-Amino-7-[(E)-3-(2-amino-1-fluoro-ethylidene)-piperidin-1-yl]-1-cyclopropyl-6,8-difluoro-4-oxo-1,4-dihydro-quinoline-3-carboxylic Acid]	≤ 0.015	0.03 (≈ 0.071 µM)	0.06 (≈ 0.142 µM)	0.12 (≈ 0.284 µM)	0.12 (≈ 0.284 µM)	–	–
NC/C(F)=C1/CCCN(c2c(F)cc3c(=O)c(C(=O)O)cn(C4CC4)c3c2OCF)C1 [Compound 457, 7-[(E)-3-(2-Amino-1-fluoro-ethylidene)-piperidin-1-yl]-1-cyclopropyl-6-fluoro-8-fluoromethoxy-4-oxo-1,4-dihydro-quinoline-3-carboxylic Acid]	0.25 (≈ 0.572 µM)	1 (≈ 2.29 µM)	2 (≈ 4.57 µM)	8 (≈ 18.3 µM)	4 (≈ 9.14 µM)	–	–
COc1c(N2CCC/C(=C(\F)CN)C2)c(F)c(C)c2c(=O)c(C(=O)O)cn(C3CC3)c12 [Compound 458, 7-[(E)-3-(2-Amino-1-fluoro-ethylidene)-piperidin-1-yl]-1-cyclopropyl-6-fluoro-8-methoxy-5-methyl-4-oxo-1,4-dihydro-quinoline-3-carboxylic Acid]	≤ 0.015	0.06 (≈ 0.138 µM)	0.03 (≈ 0.0692 µM)	0.25 (≈ 0.577 µM)	0.25 (≈ 0.577 µM)	–	–

Reference: US20090156577A1, “7-AMINO ALKYLIDENYL-HETEROCYCLIC QUINOLONES AND NAPHTHYRIDONES” (priority 2004, published 2009)
